# Results: PMC8793051 (ACS Omega, 2022)
# Key:
# [1] = tested on: oligo-1: d(CGCGAATTCGCG)2; assay: UV thermal denaturation; format: binding
# [2] = tested on: oligo-2: d(CGATGTACATCG)2; assay: UV thermal denaturation; format: binding
# [3] = tested on: oligo-2: d(CGATGTACATCG)2; assay: Fluorescence titration; format: binding; settings: 20 °C, pH 7.2
# NIH3T3 = assay: MTT cytotoxicity assay; format: cell-based; settings: Mus musculus, NIH3T3, 48 h
# K-562 = assay: NCI-60 SRB growth assay; format: cell-based, human
# MOLT-4 = assay: NCI-60 SRB growth assay; format: cell-based, human
# SR = assay: NCI-60 SRB growth assay; format: cell-based, human; settings: Homo sapiens
# HOP-92 = assay: NCI-60 SRB growth assay; format: cell-based, human
# NCI-H460 = assay: NCI-60 SRB growth assay; format: cell-based, human
# NCI-H522 = assay: NCI-60 SRB growth assay; format: cell-based, human
# COLO 205 = assay: NCI-60 SRB growth assay; format: cell-based, human
# HCT-116 = assay: NCI-60 SRB growth assay; format: cell-based, human
# HCT-15 = assay: NCI-60 SRB growth assay; format: cell-based, human
# HT29 = assay: NCI-60 SRB growth assay; format: cell-based, human
# KM12 = assay: NCI-60 SRB growth assay; format: cell-based, human
# SF-295 = assay: NCI-60 SRB growth assay; format: cell-based, human
# U251 = assay: NCI-60 SRB growth assay; format: cell-based, human
# MDA-MB-435 = assay: NCI-60 SRB growth assay; format: cell-based, human
# UACC-62 = assay: NCI-60 SRB growth assay; format: cell-based, human
# IGROV1 = assay: NCI-60 SRB growth assay; format: cell-based, human
# OVCAR-3 = assay: NCI-60 SRB growth assay; format: cell-based, human
# OVCAR-5 = assay: NCI-60 SRB growth assay; format: cell-based, human
# 786-0 = assay: NCI-60 SRB growth assay; format: cell-based, human
# A498 = assay: NCI-60 SRB growth assay; format: cell-based, human
# ACHN = assay: NCI-60 SRB growth assay; format: cell-based, human
# CAKI-1 = assay: NCI-60 SRB growth assay; format: cell-based, human
# RXF 393 = assay: NCI-60 SRB growth assay; format: cell-based, human
# PC-3 = assay: NCI-60 SRB growth assay; format: cell-based, human
# HS 578T = assay: NCI-60 SRB growth assay; format: cell-based, human; settings: HS578T
# BT-549 = assay: NCI-60 SRB growth assay; format: cell-based, human
# MDA-MB-468 = assay: NCI-60 SRB growth assay; format: cell-based, human
# [4] = tested on: panel of 60 human cancer cell lines; assay: cells; settings: read-out: GI50 concentration range
compound,measurement,setting,value
"CCCN1CCN(c2ccc3[nH]c(-c4ccc5[nH]c(-c6ccc(OCC)c(OCC)c6)nc5c4)nc3c2)CC1 [11a, 2-(2-(3,4-Diethoxyphenyl)-1H-benzo[d]imidazol-5-yl)-5-(4-propylpiperazin-1-yl)-1H-benzo[d]imidazole]",ΔTm,[1]; r = 0.5,3 °C
same,Tm,"[1]; r = 0.5, oligo 2.5 μM",57.7 °C
same,Tm,[1]; r = 1,58.7 °C
same,ΔTm,[1]; r = 1,4 °C
same,Tm,[1]; r = 1.5,60.7 °C
same,ΔTm,[1]; r = 1.5,6 °C
same,Tm,[1]; r = 2.0,62.7 °C
same,ΔTm,[1]; r = 2.0,8 °C
same,Tm,"[2]; r = 0.5, oligo 2.5 μM",57.9 °C
same,Tm,[2]; r = 1,58.9 °C
same,ΔTm,[2]; r = 1,2 °C
same,Tm,[2]; r = 1.5,58.9 °C
same,ΔTm,[2]; r = 1.5,2 °C
same,ΔTm,[2]; r = 2.0,2 °C
same,Ka binding affinity with oligo-2,[3],5 × 10^6 M^1
same,IC50,NIH3T3,2300 nM
same,GI50,"K-562; Homo sapiens, K562",310 nM
same,TGI,K-562; K-562,1500 nM
same,GI50,"MOLT-4; Homo sapiens, MOLT-4",590 nM
same,CC50,"MOLT-4; Homo sapiens, MOLT-4, read-out: LC50",> 100000 nM
same,TGI,MOLT-4; MOLT-4,4400 nM
same,GI50,SR,290 nM
same,CC50,SR; read-out: LC50,> 100000 nM
same,TGI,HOP-92; HOP-92,4500 nM
same,GI50,"HOP-92; Homo sapiens, HOP-92",1200 nM
same,CC50,"HOP-92; Homo sapiens, HOP-92, read-out: LC50",26300 nM
same,GI50,"NCI-H460; Homo sapiens, NCI-H460",430 nM
same,CC50,"NCI-H460; Homo sapiens, NCI-H460, read-out: LC50",4380 nM
same,TGI,NCI-H460; NCI–H460,1510 nM
same,GI50,"NCI-H522; Homo sapiens, NCI-H522",450 nM
same,TGI,NCI-H522; NCI–H522,2110 nM
same,TGI,COLO 205; COLO 205,1290 nM
same,GI50,"COLO 205; Homo sapiens, COLO 205",160 nM
same,CC50,"COLO 205; Homo sapiens, COLO 205, read-out: LC50",5400 nM
same,TGI,HCT-116; HCT-116,1230 nM
same,GI50,"HCT-116; Homo sapiens, HCT-116",240 nM
same,CC50,"HCT-116; Homo sapiens, HCT-116, read-out: LC50",4700 nM
same,TGI,HCT-15; HCT-15,18900 nM
same,GI50,"HCT-15; Homo sapiens, HCT-15",2420 nM
same,CC50,"HCT-15; Homo sapiens, HCT-15, read-out: LC50",> 100000 nM
same,TGI,HT29; HT29,2300 nM
same,GI50,"HT29; Homo sapiens, HT-29",450 nM
same,CC50,"HT29; Homo sapiens, HT-29, read-out: LC50",> 100000 nM
same,GI50,"KM12; Homo sapiens, KM12",1260 nM
same,CC50,"KM12; Homo sapiens, KM12, read-out: LC50",6400 nM
same,TGI,KM12; KM12,2800 nM
same,GI50,"SF-295; Homo sapiens, SF-295",500 nM
same,CC50,"SF-295; Homo sapiens, SF-295, read-out: LC50",7800 nM
same,TGI,SF-295; SF-265,2300 nM
same,GI50,"U251; Homo sapiens, U-251",420 nM
same,CC50,"U251; Homo sapiens, U-251, read-out: LC50",4800 nM
same,TGI,U251; U251,1800 nM
same,GI50,"MDA-MB-435; Homo sapiens, MDA-MB-435",670 nM
same,CC50,"MDA-MB-435; Homo sapiens, MDA-MB-435, read-out: LC50",4500 nM
same,TGI,MDA-MB-435; MDA-MB-435,1900 nM
same,GI50,"UACC-62; Homo sapiens, UACC-62",400 nM
same,CC50,"UACC-62; Homo sapiens, UACC-62, read-out: LC50",5300 nM
same,TGI,UACC-62; UACC-62,1900 nM
same,GI50,"IGROV1; Homo sapiens, IGROV-1",760 nM
same,CC50,"IGROV1; Homo sapiens, IGROV-1, read-out: LC50",37800 nM
same,TGI,IGROV1; IGROV1,4100 nM
same,GI50,"OVCAR-3; Homo sapiens, OVCAR-3",260 nM
same,CC50,"OVCAR-3; Homo sapiens, OVCAR-3, read-out: LC50",1800 nM
same,TGI,OVCAR-3; OVCAR-3,580 nM
same,GI50,"OVCAR-5; Homo sapiens, OVCAR-5",2090 nM
same,CC50,"OVCAR-5; Homo sapiens, OVCAR-5, read-out: LC50",15900 nM
same,TGI,OVCAR-5; OVCAR-5,5010 nM
same,TGI,786-0; 786–0,2500 nM
same,GI50,"786-0; Homo sapiens, 786-0",1130 nM
same,CC50,"786-0; Homo sapiens, 786-0, read-out: LC50",5540 nM
same,TGI,A498; A498,1790 nM
same,GI50,"A498; Homo sapiens, A498",470 nM
same,CC50,"A498; Homo sapiens, A498, read-out: LC50",4380 nM
same,TGI,ACHN,2100 nM
same,GI50,ACHN; Homo sapiens,820 nM
same,CC50,"ACHN; Homo sapiens, read-out: LC50",4770 nM
same,TGI,CAKI-1; CAKI-1,3030 nM
same,GI50,"CAKI-1; Homo sapiens, CAKI-1",1040 nM
same,CC50,"CAKI-1; Homo sapiens, CAKI-1, read-out: LC50",8800 nM
same,GI50,"RXF 393; Homo sapiens, RXF 393",260 nM
same,CC50,"RXF 393; Homo sapiens, RXF 393, read-out: LC50",3600 nM
same,TGI,RXF 393; RXF393,900 nM
same,GI50,"PC-3; Homo sapiens, PC-3",380 nM
same,CC50,"PC-3; Homo sapiens, PC-3, read-out: LC50",6120 nM
same,TGI,PC-3; PC-3,1920 nM
same,TGI,HS 578T,>100000 nM
same,TGI,BT-549; BT-549,2720 nM
same,GI50,"BT-549; Homo sapiens, BT-549",1220 nM
same,CC50,"BT-549; Homo sapiens, BT-549, read-out: LC50",6070 nM
same,GI50,"MDA-MB-468; Homo sapiens, MDA-MB-468",430 nM
same,CC50,"MDA-MB-468; Homo sapiens, MDA-MB-468, read-out: LC50",7070 nM
same,TGI,MDA-MB-468; MDA-MB-468,1820 nM
same,GI50,[4],160 to 3600 nM
